Assay results from PMC5515969, “Effects of 31 FDA approved small-molecule kinase inhibitors on isolated rat liver mitochondria” (Archives of Toxicology, 2016).

Assays:
[1] = system: isolated rat liver mitochondria; test: Mitochondrial oxygen consumption (glutamate/malate or succinate driven, state 4 and state 3); format: biochemical; conditions: for Glutamate/malate driven respiration State 3 / Glutamate/malate driven respiration State 4 / Succinate-driven respiration State 3 / Succinate-driven respiration State 4: oxygen consumption, DMSO-treated = 1; for lowest concentration significantly affecting mitochondrial oxygen consumption: tested at 1 to 100-fold Cmax; as to State 3 respiration driven by succinate at 10XCmax: key: 0 indicates that the drug had no effects (negative); as to State 3 respiration driven by succinate at 1XCmax: key: 0 indicates that the drug had no effects (negative)
Outline: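 Oxygen uptake on glutamate/malate or on succinate defined state 4; ADP added 3 min later gave state 3. Mitochondria isolated from rat liver by differential centrifugation, adjusted to 1 mg/ml and pretreated 5 min with inhibitor (0.1% DMSO final). Values relative to DMSO control, set to 1.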

RCC V = RCC V activity in submitochondrial particles; format: biochemical, rat; conditions: DMSO treated samples set as 1; as to RCC V at 5XCmax: key: 0 indicates that the drug had no effects (negative)
Outline: (§1)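 Absorbance kinetics: A340 (RCC I, V) and A600 (RCC II) read each minute over 6 min, A550 (RCC III, IV) every 10 s over 2 min; RCC I taken as […]. Particles (1 mg/ml) pretreated 15 min with compound; DMSO-treated activity = 1.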

RCC IV = RCC IV activity in submitochondrial particles; format: biochemical, rat; set-up: key to RCC IV at 50XCmax / RCC IV at 100XCmax: activity relative to DMSO-treated controls (control set as 1 = 100%); conditions: 50XCmax; DMSO treated samples set as 1; in %
Outline: as §1

[2] = system: isolated rat liver mitochondria; test: Mitochondrial ROS production (CM-H2DCFDA); conditions: DMSO treated samples set as 1
RCC I = RCC I activity in submitochondrial particles; format: biochemical, rat; set-up: key to RCC I at 10XCmax / RCC I at 100XCmax / RCC I at 50XCmax / RCC I at 30XCmax / RCC I at 20XCmax: activity relative to DMSO-treated controls (control set as 1 = 100%); conditions: 10XCmax; DMSO treated samples set as 1
Outline: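 Kinase inhibitors were preincubated 15 min with submitochondrial particles (1 mg/ml) before complex activities were measured. RCC I was the rotenone-sensitive portion (activity without minus with rotenone). RCC I/V was read at 340 nm and RCC II at 600 nm every 1 min for 6 min. RCC III and IV were read at 550 nm every 10 s for 2 min. Activities are normalized to DMSO controls set as 1.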

[3] = system: isolated rat liver mitochondria; test: Mitochondrial inner membrane potential (MMP), Rhodamine 123; format: biochemical; conditions: difference in signal between KI and DMSO treated samples at the end of experiments
Description: Fig. 3 KI effects on mitochondrial inner membrane potential (MMP). […] In a, c, data are means and standard derivations from three separate experiments. *p < 0.05 as compared to DMSO-treated samples at the end of experiments. In b, data are means of two independent experiments

RCC II = molecular target: T1, RCC II (Rattus norvegicus, UniProt P21913+Q641Z9+Q6PCT8+Q920L2); test: RCC II activity in submitochondrial particles; format: biochemical; set-up: key: activity relative to DMSO-treated controls (control set as 1 = 100%); conditions: DMSO treated samples set as 1
T1 construct: Submitochondrial particles were prepared by subjecting the intact mitochondria to three successive freeze–thaw cycles; from tissue; host or cells: rat liver mitochondria, used as submitochondrial particles
T1 sequence (Q920L2 35-656): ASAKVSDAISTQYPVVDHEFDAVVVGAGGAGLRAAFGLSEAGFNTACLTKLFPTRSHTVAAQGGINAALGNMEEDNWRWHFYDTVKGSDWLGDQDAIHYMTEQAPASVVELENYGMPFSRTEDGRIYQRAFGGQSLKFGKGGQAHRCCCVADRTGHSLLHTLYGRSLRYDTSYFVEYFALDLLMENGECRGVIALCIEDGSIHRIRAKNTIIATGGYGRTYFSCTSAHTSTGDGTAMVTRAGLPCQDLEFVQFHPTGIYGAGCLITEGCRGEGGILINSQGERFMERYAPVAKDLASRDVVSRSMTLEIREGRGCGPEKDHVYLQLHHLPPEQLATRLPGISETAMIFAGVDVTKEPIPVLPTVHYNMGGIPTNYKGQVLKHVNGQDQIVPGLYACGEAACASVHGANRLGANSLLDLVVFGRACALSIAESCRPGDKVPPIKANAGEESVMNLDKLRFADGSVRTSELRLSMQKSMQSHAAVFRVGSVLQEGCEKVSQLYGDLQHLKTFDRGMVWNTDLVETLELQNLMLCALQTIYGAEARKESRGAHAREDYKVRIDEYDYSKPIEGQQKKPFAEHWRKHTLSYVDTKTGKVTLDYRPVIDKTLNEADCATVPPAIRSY
T1 sequence (P21913 31-282): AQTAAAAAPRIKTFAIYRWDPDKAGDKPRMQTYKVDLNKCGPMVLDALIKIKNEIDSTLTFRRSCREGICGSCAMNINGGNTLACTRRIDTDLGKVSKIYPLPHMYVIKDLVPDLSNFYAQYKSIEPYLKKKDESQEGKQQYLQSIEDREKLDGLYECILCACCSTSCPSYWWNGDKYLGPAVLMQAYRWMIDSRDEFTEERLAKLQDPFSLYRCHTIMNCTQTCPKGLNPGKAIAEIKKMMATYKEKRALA
T1 sequence (Q641Z9 1-169): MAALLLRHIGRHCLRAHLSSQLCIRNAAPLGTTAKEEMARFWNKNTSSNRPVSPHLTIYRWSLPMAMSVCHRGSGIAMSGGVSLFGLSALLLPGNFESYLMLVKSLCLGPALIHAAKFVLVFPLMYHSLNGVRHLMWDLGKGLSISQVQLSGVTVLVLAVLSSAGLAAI
T1 sequence (Q6PCT8 57-159): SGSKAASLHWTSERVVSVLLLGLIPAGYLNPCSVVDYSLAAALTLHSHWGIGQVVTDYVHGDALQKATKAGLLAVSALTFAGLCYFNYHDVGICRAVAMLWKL
Outline: as §1

RCC III = RCC III activity in submitochondrial particles; format: biochemical, rat; set-up: key to RCC III at 100XCmax: activity relative to DMSO-treated controls (control set as 1 = 100%); conditions: 100XCmax
Outline: as §1

[4] = system: isolated rat liver mitochondria; test: Mitochondrial swelling (absorbance at 535 nm); format: biochemical; conditions: difference in signal between KI and DMSO treated samples at the end of experiments; as to Swelling 5XCmax: key: 0 indicates that the drug had no effects (negative)
[5] = 30XCmax, DMSO treated samples set as 1

CC[C@H](Nc1ncnc2[nH]cnc12)c1nc2cccc(F)c2c(=O)n1-c1ccccc1 [Idelalisib]
1.13 ± 0.05: Glutamate/malate driven respiration State 4 ([1]; 100-fold Cmax)
0.65 ± 0.03: Succinate-driven respiration State 3 ([1]; 100-fold Cmax)
50 fold Cmax: lowest concentration significantly affecting mitochondrial oxygen consumption [1]
0.66±0.03: State 3 respiration driven by glutamate/malate at 100XCmax ([1]; DMSO treated samples set as 1)
0.66 ± 0.03: Glutamate/malate driven respiration State 3 ([1]; 100-fold Cmax)
1.05 ± 0.01: Succinate-driven respiration State 4 ([1]; 100-fold Cmax)
0.65±0.03: State 3 respiration driven by succinate at 100XCmax ([1]; DMSO treated samples set as 1)
0.83 ± 0.06: Succinate-driven respiration State 3 ([1]; 50-fold Cmax)
1.00 ± 0.08: Glutamate/malate driven respiration State 4 ([1]; 50-fold Cmax)
0.76±0.04: State 3 respiration driven by glutamate/malate at 50XCmax ([1]; DMSO treated samples set as 1)
0.97 ± 0.04: Succinate-driven respiration State 4 ([1]; 50-fold Cmax)
0.76 ± 0.04: Glutamate/malate driven respiration State 3 ([1]; 50-fold Cmax)
0: State 3 respiration driven by succinate at 1XCmax ([1]; DMSO treated samples set as 1) | State 4 respiration driven by succinate at 1XCmax ([1]; DMSO treated samples set as 1) | State 3 respiration driven by succinate at 2.5XCmax ([1]; DMSO treated samples set as 1) | State 4 respiration driven by succinate at 2.5XCmax ([1]; DMSO treated samples set as 1) | State 3 respiration driven by succinate at 5XCmax ([1]; DMSO treated samples set as 1) | State 4 respiration driven by succinate at 5XCmax ([1]; DMSO treated samples set as 1) | State 3 respiration driven by succinate at 10XCmax ([1]; DMSO treated samples set as 1) | State 4 respiration driven by succinate at 10XCmax ([1]; DMSO treated samples set as 1) | State 3 respiration driven by succinate at 20XCmax ([1]; DMSO treated samples set as 1) | State 4 respiration driven by succinate at 20XCmax ([1]; DMSO treated samples set as 1) | State 3 respiration driven by succinate at 30XCmax [1, 5] | State 4 respiration driven by succinate at 30XCmax [1, 5] | State 3 respiration driven by succinate at 50XCmax ([1]; DMSO treated samples set as 1) | State 4 respiration driven by succinate at 50XCmax ([1]; DMSO treated samples set as 1) | State 4 respiration driven by succinate at 100XCmax ([1]; DMSO treated samples set as 1) | RCC V at 5XCmax (RCC V) | RCC V at 50XCmax (RCC V) | RCC IV at 50XCmax (RCC IV) | ROS measured by CM-H2DCFDA at 1XCmax [2] | ROS measured by CM-H2DCFDA at 2.5XCmax [2] | ROS measured by CM-H2DCFDA at 5XCmax [2] | ROS measured by CM-H2DCFDA at 10XCmax [2] | ROS measured by CM-H2DCFDA at 20XCmax [2] | ROS measured by CM-H2DCFDA at 30XCmax [2] | ROS measured by CM-H2DCFDA at 50XCmax [2] | ROS measured by CM-H2DCFDA at 100XCmax [2] | RCC I at 10XCmax (RCC I) | MMP measured by Rhodamine 123 at 1XCmax [3] | MMP measured by Rhodamine 123 at 2.5XCmax [3] | MMP measured by Rhodamine 123 at 5XCmax [3] | MMP measured by Rhodamine 123 at 10XCmax [3] | MMP measured by Rhodamine 123 at 20XCmax [3] | MMP measured by Rhodamine 123 at 30XCmax [3] | MMP measured by Rhodamine 123 at 50XCmax [3] | MMP measured by Rhodamine 123 at 100XCmax [3] | RCC II at 1.0XCmax (RCC II) | RCC II at 2.5XCmax (RCC II) | RCC II at 5XCmax (RCC II) | RCC II at 10XCmax (RCC II) | RCC II at 20XCmax (RCC II) | RCC II at 30XCmax (RCC II) | RCC II at 50XCmax (RCC II) | RCC II at 100XCmax (RCC II) | RCC III at 100XCmax (RCC III) | Swelling 1XCmax [4] | Swelling 2.5XCmax [4] | Swelling 5XCmax [4] | Swelling 10XCmax [4] | Swelling 20XCmax [4] | Swelling 30XCmax [4] | Swelling 50XCmax [4] | Swelling 100XCmax [4]

COc1cc2nccc(Oc3ccc(NC(=O)NC4CC4)c(Cl)c3)c2cc1C(N)=O [Lenvatinib]
0.96 ± 0.03: Succinate-driven respiration State 4 ([1]; 50-fold Cmax)
0.70±0.02: State 3 respiration driven by glutamate/malate at 50XCmax ([1]; DMSO treated samples set as 1)
0.86 ± 0.04: Succinate-driven respiration State 3 ([1]; 30-fold Cmax)
1.06 ± 0.06: Glutamate/malate driven respiration State 4 ([1]; 100-fold Cmax)
0.70 ± 0.02: Glutamate/malate driven respiration State 3 ([1]; 50-fold Cmax)
0.74±0.04: State 3 respiration driven by glutamate/malate at 100XCmax ([1]; DMSO treated samples set as 1)
0.90 ± 0.01: Succinate-driven respiration State 3 ([1]; 50-fold Cmax)
0.76±0.05: State 3 respiration driven by glutamate/malate at 30XCmax [1, 5]
0.74 ± 0.04: Glutamate/malate driven respiration State 3 ([1]; 100-fold Cmax)
0.95 ± 0.06: Glutamate/malate driven respiration State 4 ([1]; 30-fold Cmax)
0.99 ± 0.03: Succinate-driven respiration State 3 ([1]; 100-fold Cmax)
0.94 ± 0.01: Succinate-driven respiration State 4 ([1]; 30-fold Cmax)
1.07 ± 0.03: Succinate-driven respiration State 4 ([1]; 100-fold Cmax)
0: State 3 respiration driven by succinate at 1XCmax ([1]; DMSO treated samples set as 1) | State 4 respiration driven by succinate at 1XCmax ([1]; DMSO treated samples set as 1) | State 3 respiration driven by succinate at 2.5XCmax ([1]; DMSO treated samples set as 1) | State 4 respiration driven by succinate at 2.5XCmax ([1]; DMSO treated samples set as 1) | State 3 respiration driven by succinate at 5XCmax ([1]; DMSO treated samples set as 1) | State 4 respiration driven by succinate at 5XCmax ([1]; DMSO treated samples set as 1) | State 3 respiration driven by succinate at 10XCmax ([1]; DMSO treated samples set as 1) | State 4 respiration driven by succinate at 10XCmax ([1]; DMSO treated samples set as 1) | State 3 respiration driven by succinate at 20XCmax ([1]; DMSO treated samples set as 1) | State 4 respiration driven by succinate at 20XCmax ([1]; DMSO treated samples set as 1) | State 3 respiration driven by succinate at 30XCmax [1, 5] | State 4 respiration driven by succinate at 30XCmax [1, 5] | State 3 respiration driven by succinate at 50XCmax ([1]; DMSO treated samples set as 1) | State 4 respiration driven by succinate at 50XCmax ([1]; DMSO treated samples set as 1) | State 3 respiration driven by succinate at 100XCmax ([1]; DMSO treated samples set as 1) | State 4 respiration driven by succinate at 100XCmax ([1]; DMSO treated samples set as 1) | RCC V at 5XCmax (RCC V) | RCC V at 50XCmax (RCC V) | RCC IV at 50XCmax (RCC IV) | ROS measured by CM-H2DCFDA at 1XCmax [2] | ROS measured by CM-H2DCFDA at 2.5XCmax [2] | ROS measured by CM-H2DCFDA at 5XCmax [2] | ROS measured by CM-H2DCFDA at 10XCmax [2] | ROS measured by CM-H2DCFDA at 20XCmax [2] | ROS measured by CM-H2DCFDA at 30XCmax [2] | ROS measured by CM-H2DCFDA at 50XCmax [2] | ROS measured by CM-H2DCFDA at 100XCmax [2] | RCC I at 10XCmax (RCC I) | MMP measured by Rhodamine 123 at 1XCmax [3] | MMP measured by Rhodamine 123 at 2.5XCmax [3] | MMP measured by Rhodamine 123 at 5XCmax [3] | MMP measured by Rhodamine 123 at 10XCmax [3] | MMP measured by Rhodamine 123 at 20XCmax [3] | MMP measured by Rhodamine 123 at 30XCmax [3] | MMP measured by Rhodamine 123 at 50XCmax [3] | MMP measured by Rhodamine 123 at 100XCmax [3] | RCC II at 1.0XCmax (RCC II) | RCC II at 2.5XCmax (RCC II) | RCC II at 5XCmax (RCC II) | RCC II at 10XCmax (RCC II) | RCC II at 20XCmax (RCC II) | RCC II at 30XCmax (RCC II) | RCC II at 50XCmax (RCC II) | RCC II at 100XCmax (RCC II) | RCC III at 100XCmax (RCC III) | Swelling 1XCmax [4] | Swelling 2.5XCmax [4] | Swelling 5XCmax [4] | Swelling 10XCmax [4] | Swelling 20XCmax [4] | Swelling 30XCmax [4] | Swelling 50XCmax [4] | Swelling 100XCmax [4]
0.76 ± 0.05: Glutamate/malate driven respiration State 3 ([1]; 30-fold Cmax)
30 fold Cmax: lowest concentration significantly affecting mitochondrial oxygen consumption [1]
0.93 ± 0.01: Glutamate/malate driven respiration State 4 ([1]; 50-fold Cmax)
